Drawing on patent publication US20230092890A1, “1, 3, 4-Oxadiazole derivative compounds as histone deacetylase 6 inhibitor, and the pharmaceutical composition comprising the same” (Chong Kun Dang Pharmaceutical Corp., priority 2019, published 2023), this text covers IC50 for 9 molecules.

One assay has as its target T1, HDAC1 (Homo sapiens, UniProt Q13547).
T1 construct: purchased Enzolifesciences BML-AK511
The assay can be described thus: HDAC enzyme activity inhibition (in vitro), HDAC1 Fluorimetric Drug Discovery Assay Kit. The class given is biochemical. The note with it: samples at 100, 1000 and 10000 nM; 37° C. 60 minutes; fluorescence Ex 390, Em 460; read-out: HDAC1 IC50. Summed up: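 Compounds at 100, 1000, 10000 nM (HDAC1) or 0.1, 1, 10, 100, 1000 nM (HDAC6); 37° C, 60 min; developer, 37° C, 30 min; fluorescence Ex 390/Em 460.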

For another assay, the target named is T2, HDAC6 human recombinant (Homo sapiens, UniProt Q9UBN7).
T2 construct: purchased Calbiochem 382180
T2 sequence (Q9UBN7 1-1215): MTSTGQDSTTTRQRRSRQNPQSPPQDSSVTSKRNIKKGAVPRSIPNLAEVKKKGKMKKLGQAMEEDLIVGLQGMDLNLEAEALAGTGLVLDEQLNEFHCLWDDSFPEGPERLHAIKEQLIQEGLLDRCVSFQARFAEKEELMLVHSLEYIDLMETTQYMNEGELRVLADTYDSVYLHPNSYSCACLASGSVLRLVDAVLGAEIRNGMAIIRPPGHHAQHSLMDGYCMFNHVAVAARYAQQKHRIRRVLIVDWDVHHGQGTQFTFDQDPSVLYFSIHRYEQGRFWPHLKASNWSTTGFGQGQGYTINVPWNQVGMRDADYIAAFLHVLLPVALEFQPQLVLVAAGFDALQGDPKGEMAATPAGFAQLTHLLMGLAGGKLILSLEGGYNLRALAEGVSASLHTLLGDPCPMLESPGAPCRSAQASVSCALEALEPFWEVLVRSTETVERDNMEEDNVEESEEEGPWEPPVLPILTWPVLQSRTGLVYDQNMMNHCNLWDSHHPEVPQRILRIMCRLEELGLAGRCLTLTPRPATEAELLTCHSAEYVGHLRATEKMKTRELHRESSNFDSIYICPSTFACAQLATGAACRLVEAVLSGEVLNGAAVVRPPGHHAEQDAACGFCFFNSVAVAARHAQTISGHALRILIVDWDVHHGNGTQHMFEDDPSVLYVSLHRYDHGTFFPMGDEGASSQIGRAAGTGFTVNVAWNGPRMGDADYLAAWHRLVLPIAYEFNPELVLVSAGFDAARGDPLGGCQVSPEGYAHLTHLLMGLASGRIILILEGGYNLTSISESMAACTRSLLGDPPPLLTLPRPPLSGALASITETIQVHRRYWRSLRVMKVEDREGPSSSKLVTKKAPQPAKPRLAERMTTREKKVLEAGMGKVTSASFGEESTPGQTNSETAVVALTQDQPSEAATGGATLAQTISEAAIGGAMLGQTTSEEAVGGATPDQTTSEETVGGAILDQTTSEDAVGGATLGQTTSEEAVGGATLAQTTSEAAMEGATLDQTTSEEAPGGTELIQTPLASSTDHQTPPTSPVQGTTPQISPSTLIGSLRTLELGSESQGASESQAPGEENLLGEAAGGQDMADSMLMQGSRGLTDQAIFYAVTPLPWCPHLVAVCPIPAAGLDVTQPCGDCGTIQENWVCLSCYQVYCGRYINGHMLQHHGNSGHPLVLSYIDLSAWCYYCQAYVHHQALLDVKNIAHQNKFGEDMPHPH
Put plainly: HDAC enzyme activity inhibition (in vitro), HDAC6 assay. The class given is biochemical. The note with it: samples at 0.1, 1, 10, 100 and 1000 nM; 37° C. 60 minutes; fluorescence Ex 390, Em 460; read-out: HDAC6 IC50. Summed up: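 HDAC6 human recombinant enzyme with fluorimetric substrate; […]. Reaction 60 min at 37° C, then developer 30 min at 37° C; fluorescence read at Ex 390/Em 460.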

T1 sequence (Q13547 whole entry): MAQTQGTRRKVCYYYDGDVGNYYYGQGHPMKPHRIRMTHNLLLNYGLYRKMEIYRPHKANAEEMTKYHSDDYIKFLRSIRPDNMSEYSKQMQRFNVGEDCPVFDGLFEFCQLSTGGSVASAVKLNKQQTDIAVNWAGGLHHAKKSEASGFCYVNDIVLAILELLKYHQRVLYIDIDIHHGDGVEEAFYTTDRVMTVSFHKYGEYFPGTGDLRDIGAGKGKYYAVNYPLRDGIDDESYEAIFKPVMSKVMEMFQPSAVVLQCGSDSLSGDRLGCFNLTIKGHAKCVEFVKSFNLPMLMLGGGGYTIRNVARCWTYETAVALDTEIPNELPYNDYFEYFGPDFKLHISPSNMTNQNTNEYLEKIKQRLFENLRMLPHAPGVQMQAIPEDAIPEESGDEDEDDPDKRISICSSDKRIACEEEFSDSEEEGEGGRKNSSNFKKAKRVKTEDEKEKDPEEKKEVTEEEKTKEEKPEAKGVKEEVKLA

On to `CN1CCC(n2c(=O)n(Cc3ccc(-c4nnc(C(F)F)o4)cn3)c3cc(F)c(-c4cccnc4)cc32)CC1` [Compound 155, 1-((5-(5-(difluoromethyl)-1,3,4-oxadiazole-2-yl)pyridine-2-yl)methyl)-6-fluoro-3-(1-methylpiperidine-4-yl)-5-(pyridine-3-yl)-1,3-dihydro-2H-benzo[d]imidazole-2-one], for which the IC50 was > 10000 nM at HDAC1 and 20 nM on HDAC6 human recombinant.
`CN1CCC(c2ccc3c(c2)n(C2CCN(C)CC2)c(=O)n3Cc2ccc(-c3nnc(C(F)F)o3)cc2F)CC1` [Compound 156, 1-(4-(5-(difluoromethyl)-1,3,4-oxadiazole-2-yl)-2-fluorobenzyl)-3,5-bis(1-methylpiperidine-4-yl)-1,3-dihydro-2H-benzo[d]imidazole-2-one]: the results for the IC50 on HDAC1 and on HDAC6 human recombinant were > 10000 nM and 102 nM, respectively.
In the same order, the values of `CC(=O)N1CCC(c2ccc3c(c2)n(C2CCN(C)CC2)c(=O)n3Cc2ccc(-c3nnc(C(F)F)o3)cc2F)CC1` [Compound 157, 5-(1-acetylpiperidine-4-yl)-1-(4-(5-(difluoromethyl)-1,3,4-oxadiazole-2-yl)-2-fluorobenzyl)-3-(1-methylpiperidine-4-yl)-1,3-dihydro-2H-benzo[d]imidazole-2-one] are > 10000 nM and 159 nM.
As to `CN1CCC(n2c(=O)n(Cc3ccc(-c4nnc(C(F)F)o4)cc3F)c3ccc(C4CCN(S(C)(=O)=O)CC4)cc32)CC1` [Compound 158, 1-(4-(5-(difluoromethyl)-1,3,4-oxadiazole-2-yl)-2-fluorobenzyl)-3-(1-methylpiperidine-4-yl)-5-(1-(methylsulfonyl)piperidine-4-yl)-1,3-dihydro-2H-benzo[d]imidazole-2-one], the IC50 was > 10000 nM at HDAC1 and 138 nM at HDAC6 human recombinant.
For `CN1CCC(n2c(=O)n(Cc3ccc(-c4nnc(C(F)F)o4)cc3F)c3ccc(-c4cccc(F)c4)cc32)CC1` [Compound 159, 1-(4-(5-(difluoromethyl)-1,3,4-oxadiazole-2-yl)-2-fluorobenzyl)-5-(3-fluorophenyl)-3-(1-methylpiperidine-4-yl)-1,3-dihydro-2H-benzo[d]imidazole-2-one], the results for the IC50 at HDAC1 and at HDAC6 human recombinant were > 10000 nM and 71 nM, respectively.
For the molecule `CN1CCC(n2c(=O)n(Cc3ccc(-c4nnc(C(F)F)o4)cc3F)c3ccc(-c4ccccc4F)cc32)CC1` [Compound 160, 1-(4-(5-(difluoromethyl)-1,3,4-oxadiazole-2-yl)-2-fluorobenzyl)-5-(2-fluorophenyl)-3-(1-methylpiperidine-4-yl)-1,3-dihydro-2H-benzo[d]imidazole-2-one], the IC50 at HDAC1 was > 10000 nM; at HDAC6 human recombinant it was 92 nM.
For `CN1CCC(n2c(=O)n(Cc3ccc(-c4nnc(C(F)F)o4)cc3F)c3ccc(-c4ccncc4)cc32)CC1` [Compound 161, 1-(4-(5-(difluoromethyl)-1,3,4-oxadiazole-2-yl)-2-fluorobenzyl)-3-(1-methylpiperidine-4-yl)-5-(pyridine-4-yl)-1,3-dihydro-2H-benzo[d]imidazole-2-one], the IC50 at HDAC1 was > 10000 nM; at HDAC6 human recombinant, 40 nM.
In the case of `CN1CCC(n2c(=O)n(Cc3ccc(-c4nnc(C(F)F)o4)cc3F)c3ccc(-c4ccoc4)cc32)CC1` [Compound 162, 1-(4-(5-(difluoromethyl)-1,3,4-oxadiazole-2-yl)-2-fluorobenzyl)-5-(furan-3-yl)-3-(1-methylpiperidine-4-yl)-1,3-dihydro-2H-benzo[d]imidazole-2-one], the IC50 on HDAC1 is > 10000 nM; on HDAC6 human recombinant, 39 nM.
In the same order, the values of `Cc1ccc(-c2ccc3c(c2)n(C2CCN(C)CC2)c(=O)n3Cc2ccc(-c3nnc(C(F)F)o3)cc2F)o1` [Compound 163, 1-(4-(5-(difluoromethyl)-1,3,4-oxadiazole-2-yl)-2-fluorobenzyl)-5-(5-methylfuran-2-yl)-3-(1-methylpiperidine-4-yl)-1,3-dihydro-2H-benzo[d]imidazole-2-one] are > 10000 nM and 91 nM.

In general, IC50 refers to the concentration at which inhibition is half-maximal.
